Assay results as given in patent publication US11141475B2, “Inactivating pathogens and producing highly immunogenic inactivated vaccines using a dual oxidation process” (priority 2016, dated 2021).

Legend:
[1] = test system: DENV4 envelope structural protein; test: DENV-specific sandwich ELISA on treated DENV4 (antigenicity); assay type: binding, dengue virus serotype 4; conditions: for DENV4 antigenicity in the dual-oxidation system (ELISA): H2O2 0.01%, CuCl2 1 μM, each compound 10 μM, 20 hrs post-inactivation; for DENV4 antigenicity (retained neutralizing epitopes, ELISA): treated 20 hours at room temperature (FIG. 19B)
DENV4 = assay type: cell-based, dengue virus serotype 4
[2] = test system: DENV3 envelope structural protein; test: DENV-specific sandwich ELISA on treated DENV3 (antigenicity); assay type: binding, dengue virus 3; conditions: H2O2 0.01%, range of CuCl2 and FeCl3 concentrations
DENV2 = DENV2 inactivation kinetics at increasing total viral protein (PFU assay); assay type: cell-based, dengue virus 2; conditions: 3% H2O2, or 0.01% H2O2 and 1 μM CuCl2, room temperature
C. coli [3] = test: Campylobacter morphology after inactivation (Gram safranin stain); parameters: species or system Campylobacter coli; conditions: 3% H2O2 for 5 hours at room temperature, or dual oxidation
[4] = test system: CHIKV E1 and E2 structural proteins; test: CHIKV-specific sandwich ELISA with two neutralizing monoclonal antibodies (antigenicity); assay type: binding, Chikungunya virus; conditions: for CHIKV antigenicity (retained neutralizing epitopes, ELISA): treated 20 hours at room temperature (FIG. 19A)
[5] = test system: YFV envelope structural protein
Listeria monocytogenes = Listeria monocytogenes inactivation (CFU/mL); assay type: cell-based; conditions: added to H2O2 0.10%, CuCl2 10 μM; MZ 100 μM
C. coli [6] = test: Campylobacter coli inactivation kinetics (viable bacteria, CFU/mL); assay type: cell-based; conditions: added to H2O2 0.01%, CuCl2 2 μM; MZ 20 μM
vaccinia virus = assay type: cell-based; conditions: added to H2O2 0.002%, CuCl2 1 μM; MZ 10 μM; PBS pH 7.5
smallpox = conditions: in vivo; cited from earlier work
[7] = human, in vivo, 152 mg/kg; cited from earlier work
CHIKV = assay type: cell-based, Chikungunya virus
Shigella dysenteriae = Shigella dysenteriae inactivation (CFU/mL); assay type: cell-based; conditions: added to H2O2 0.10%, CuCl2 10 μM; MZ 100 μM

## O=C1Nc2ccccc2C1=O [isatin]
[1]
  DENV4 antigenicity in the dual-oxidation system (ELISA): protection of protein antigens from oxidative damage
DENV4
  DENV4 inactivation in the dual-oxidation system (plaque assay): do not appear to increase the rate of inactivation

## NNC(N)=S [thiosemicarbazide]
[1]
  DENV4 antigenicity in the dual-oxidation system (ELISA): superior antigenicity
DENV4
  DENV4 inactivation in the dual-oxidation system (plaque assay): enhancement of inactivation

## CCCN1C(=O)C(=NNC(N)=S)c2ccccc21 [N-propylisatin β-thiosemicarbazone]
[1]
  DENV4 antigenicity in the dual-oxidation system (ELISA): superior antigenicity
DENV4
  DENV4 inactivation in the dual-oxidation system (plaque assay): enhanced rates of inactivation

## NC(=S)NN=C1C(=O)Nc2ccccc21 [isatin β-thiosemicarbazone]
[1]
  DENV4 antigenicity in the dual-oxidation system (ELISA): superior antigenicity
DENV4
  DENV4 inactivation in the dual-oxidation system (plaque assay): enhanced rates of inactivation

## NNC(N)=O [semicarbazide]
[1]
  DENV4 antigenicity in the dual-oxidation system (ELISA): protection of protein antigens from oxidative damage
DENV4
  DENV4 inactivation in the dual-oxidation system (plaque assay): do not appear to increase the rate of inactivation

## [Cl][Fe]([Cl])[Cl] [FeCl3]
[2]
  DENV3 antigenicity with combinations of CuCl2 and FeCl3 (ELISA): enhanced antigenicity

## OO [3% H2O2, hydrogen peroxide]
[1]
  DENV4 antigenicity (retained neutralizing epitopes, ELISA): loss of neutralizing epitopes
DENV2
  dependence of virus inactivation kinetics on total viral protein concentration: protein concentration-independent
C. coli [3]
  bacterial morphology after inactivation: substantially damaged with clear changes in morphology
[4]; 3% H2O2 under standard conditions (7 hours, room temperature)
  antigenicity, in vitro potency testing using envelope-specific MAbs: nearly complete loss of antigenicity
[4]
  CHIKV antigenicity (retained neutralizing epitopes, ELISA): loss of neutralizing epitopes
[5]
  YFV antigenicity (neutralizing epitopes): severe damage to neutralizing epitopes

## CN1C(=O)/C(=N\NC(N)=S)c2ccccc21 [methisazone, N-methylisatin β-thiosemicarbazone]
[1]
  DENV4 antigenicity (retained neutralizing epitopes, ELISA): maintained or significantly improved antigenicity
Listeria monocytogenes
  inactivation rate of Listeria monocytogenes: substantially enhanced inactivation rates
C. coli [6]
  inactivation rate of Campylobacter coli: substantially enhanced inactivation rates
[4]; H2O2 0.02%, CuCl2 1 μM, ELISA at 20 hrs
  CHIKV retained antigenicity with increasing methisazone relative to the transition metal: concomitant improvements
[4]
  CHIKV antigenicity (retained neutralizing epitopes, ELISA): maintained or significantly improved antigenicity
Vaccinia virus
  rate of dual-oxidation-based inactivation, vaccinia virus: substantially increase the rate
smallpox
  close contacts who developed mild smallpox: 0.27%
  close contacts who developed mild smallpox (cases/contacts): 3/1101
  deaths among close contacts: no deaths
  non-vaccinated subjects who contracted smallpox: 2%
  non-vaccinated subjects who contracted smallpox (cases/subjects): 2/102
[7]
  serious adverse events: lack of serious adverse events
CHIKV
  CHIKV inactivation in the absence of copper: minimal impact
  CHIKV inactivation rates with increasing methisazone relative to the transition metal: concomitant improvements
  increase of the rate of inactivation vs dual oxidation alone, CHIKV: 10- to 20 fold
  rate of dual-oxidation-based inactivation, CHIKV: substantially increase the rate
DENV4
  DENV4 inactivation in the absence of copper: minimal impact
  increase of the rate of inactivation vs dual oxidation alone, DENV4: 10- to 20 fold
  rate of dual-oxidation-based inactivation, DENV4: substantially increase the rate
Shigella dysenteriae
  inactivation rate of Shigella dysenteriae: substantially enhanced inactivation rates
